Active and inactive are the calls of the source. No cut-off for these calls is given here.

Consider 13 compounds from ChEMBL document CHEMBL3817819, “Development and application of ligand-based NMR screening assays for -butyrobetaine hydroxylase” (Medchemcomm, 2016).

The target of assay [1] is T1, Gamma-butyrobetaine dioxygenase (Pseudomonas sp. (strain AK-1), UniProt P80193).
T1 sequence (P80193 whole entry): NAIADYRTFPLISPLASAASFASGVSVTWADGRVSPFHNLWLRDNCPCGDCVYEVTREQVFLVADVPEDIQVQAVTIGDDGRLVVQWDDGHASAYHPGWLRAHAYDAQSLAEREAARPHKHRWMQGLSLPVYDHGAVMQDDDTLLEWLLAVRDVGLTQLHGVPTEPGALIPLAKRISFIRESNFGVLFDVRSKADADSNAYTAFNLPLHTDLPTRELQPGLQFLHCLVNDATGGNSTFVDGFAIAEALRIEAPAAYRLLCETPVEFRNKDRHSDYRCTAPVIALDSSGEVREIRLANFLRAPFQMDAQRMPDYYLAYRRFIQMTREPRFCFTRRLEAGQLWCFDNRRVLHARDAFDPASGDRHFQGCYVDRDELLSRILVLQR
Nature of the assay: Binding affinity to Pseudomonas sp. AK1 BBOX by intrinsic tryptophan fluorescence quenching assay.

Assay [2] deals with T1, Gamma-butyrobetaine dioxygenase. Kind of assay: Inhibition of Pseudomonas sp. AK1 BBOX assessed as hydroxylation of GBB to L-carnitine measured for 60 sec in presence of 2OG and Fe2+ by 1H NMR assay.
Assay [3] shares this target. Nature of the assay: Inhibition of Pseudomonas sp. AK1 BBOX using GBBF as substrate after 10 mins in presence of 2OG and Fe2+ using TBS-protected fluorescein probe by fluoride release assay.
In assay [4] the target is T2, Gamma-butyrobetaine dioxygenase (Pseudomonas sp. (strain AK-1)) (UniProt P80193).
T2 sequence (whole entry): T1 sequence (P80193 whole entry)
Kind of assay: Inhibition of 2OG binding to Pseudomonas sp. AK1 BBOX at 25 uM in presence of Mn2+ by 1H NMR GBB/2OG dual reporter displacement assay.

Assay [5] addresses T2, Gamma-butyrobetaine dioxygenase (Pseudomonas sp. (strain AK-1)). Kind of assay: Inhibition of GBB binding to Pseudomonas sp. AK1 BBOX at 25 uM in presence of Mn2+ by 1H NMR GBB/2OG dual reporter displacement assay.
For assay [6] the target is unchanged. Kind of assay: Induction of GBB binding to Pseudomonas sp. AK1 BBOX at 25 uM in presence of Mn2+ by 1H NMR GBB/2OG dual reporter displacement assay.
Assay [7] concerns the target T3, Gamma-butyrobetaine dioxygenase (Homo sapiens, UniProt O75936).
T3 sequence (O75936 whole entry): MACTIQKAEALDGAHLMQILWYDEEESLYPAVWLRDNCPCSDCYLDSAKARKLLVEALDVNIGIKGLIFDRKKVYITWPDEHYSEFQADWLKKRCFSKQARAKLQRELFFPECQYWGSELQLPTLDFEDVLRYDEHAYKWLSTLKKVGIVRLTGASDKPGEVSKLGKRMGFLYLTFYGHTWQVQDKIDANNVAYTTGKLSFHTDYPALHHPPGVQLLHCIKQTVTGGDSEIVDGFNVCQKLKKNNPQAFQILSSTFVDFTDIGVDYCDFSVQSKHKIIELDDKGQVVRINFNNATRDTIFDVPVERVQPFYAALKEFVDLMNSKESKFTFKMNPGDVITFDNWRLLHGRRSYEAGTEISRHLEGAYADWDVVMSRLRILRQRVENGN
Nature of the assay: Inhibition of human BBOX using GBBF as substrate in presence of 2OG and Fe2+ using TBS-protected fluorescein probe by fluoride release assay.

Regarding `O=C(N[C@H](Cc1ccccc1)C(=O)O)c1nc(Cl)c2ccccc2c1O`, binding in assay [1] was put at a Kd of 82 µM. Moreover, the IC50 in assay [2] amounted to 38 µM; in assay [3] it was 101 µM.
Regarding `O=C(O)CNC(=O)c1nc(Cl)c2ccccc2c1O`, the inhibition entry in assay [4] is “Active”. Moreover, the inhibition result in assay [5] was “inactive”. This compound yielded a Kd in assay [1] of 22 µM. The figures for the IC50 in assay [2] and in assay [3] were 0.21 µM and 1.2 µM, respectively. Moreover, the result in assay [6] was Active.
`O=C(O)CC[C@@H](NC(=O)c1nc(Cl)c2ccccc2c1O)C(=O)O`: the inhibition entry in assay [4] and in assay [5] was “inactive” in each case. The Kd in assay [1] is 89 µM. The values for the IC50 in assay [2] and in assay [3] were 86 µM and greater than 1000 µM, respectively.
Take `O=C(O)C[C@H](NC(=O)c1nc(Cl)c2ccccc2c1O)C(=O)O`: the inhibition entry in assay [4] was “Active”. Moreover, the inhibition result in assay [5] is “inactive”. The same compound came in with a Kd in assay [1] of 91 µM. The half-inhibitory concentration (IC50) in assay [2] came out at 76 µM; in assay [3], 245 µM.
The compound `O=C(O)CC[C@H](NC(=O)c1nc(Cl)c2ccccc2c1O)C(=O)O` gave a Kd in assay [1] of 64 µM. The half-inhibitory concentration (IC50) in assay [2] came to 22 µM; in assay [3], 147 µM.
`O=C(N[C@@H](Cc1ccccc1)C(=O)O)c1nc(Cl)c2ccccc2c1O`: the inhibition result in assay [4] and in assay [5] was “Active” in each case. The compound also yielded a Kd in assay [1] of 26 µM. Besides, the figures for the IC50 in assay [2] and in assay [3] were 1 µM and 13 µM, respectively.
Regarding `CC(C)C[C@@H](NC(=O)c1nc(Cl)c2ccccc2c1O)C(=O)O`, the inhibition result in assay [4] and in assay [5] was “inactive” each time. Besides, the Kd in assay [1] worked out at 103 µM. The concentration for half-maximal inhibition (IC50) in assay [2] is 94 µM; in assay [3], greater than 1000 µM.
For the compound `CC(C)C[C@H](NC(=O)c1nc(Cl)c2ccccc2c1O)C(=O)O`, the inhibition entry in assay [4] and in assay [5] was “Active” each time. The compound further displayed a Kd in assay [1] of 55 µM. For the same compound, the IC50 was 26 µM in assay [2] and 125 µM in assay [3].
With `O=C(N[C@H](Cc1c[nH]c2ccccc12)C(=O)O)c1nc(Cl)c2ccccc2c1O`, the affinity in assay [1], expressed as Kd, was 168 µM. In addition, the half-inhibitory concentration (IC50) in assay [2] was 18 µM; in assay [3] it was greater than 1000 µM; in assay [7] it was 33 µM.
Consider `O=C(N[C@@H](Cc1c[nH]c2ccccc12)C(=O)O)c1nc(Cl)c2ccccc2c1O`, for which the inhibition entry in assay [4] and in assay [5] was “Active” throughout. This compound gave a Kd in assay [1] of 29 µM. In addition, the IC50 worked out at 0.9 µM in assay [2], 26 µM in assay [3] and 11 µM in assay [7].
`O=C(O)C[C@@H](NC(=O)c1nc(Cl)c2ccccc2c1O)C(=O)O`: in assay [1], the Kd was found to be 101 µM. Besides, the values for the 50% inhibitory concentration (IC50) in assay [2] and in assay [3] were 38 µM and 160 µM, respectively.
Take `CC(C)[C@@H](NC(=O)c1nc(Cl)c2ccccc2c1O)C(=O)O`: the inhibition result in assay [4] and in assay [5] was “inactive” in each case. In assay [1], this compound yielded a Kd of 144 µM. Moreover, the IC50 in assay [2] was 191 µM; in assay [3], greater than 1000 µM.
Consider `CC(C)[C@H](NC(=O)c1nc(Cl)c2ccccc2c1O)C(=O)O`, for which the inhibition entry in assay [4] and in assay [5] was “Active” in each case. For the same compound, the Kd in assay [1] was 55 µM. Besides, the IC50 worked out at 23 µM in assay [2] and 130 µM in assay [3].

Usually Kd stands for the constant that tells how readily two partners part at equilibrium. As usually defined, the IC50 is the midpoint of a concentration-inhibition curve.
